Source: US20160257928A1, “Method for producing pluripotent stem cell having improved chimera forming ability from primed pluripotent stem cell, and composition and combination therefor” (The University of Tokyo, priority 2015, published 2016)

How the values were obtained:
EB3DR-EpiSC [1] = test: CD31 (PECAM-1) expression by FACS; type: cell-based, mouse; conditions: for expression of CD31 (CD31 positive cell frequency): in the presence of LIF
Procedure: Next, the expression of CD31 (PECAM-1) in these cells was analyzed. The expression level of CD31 was checked by the FACS by using an APC labeled rat anti-mouse CD31 antibody (manufactured by eBioscience, 17-0311). […] When a colony of the CD31 expressing cell was cloned and subcultured, a mouse ES cell-like morphology was obtained (see FIG. 4, (G)), and such a cell could be subcultured continuously for a long period of time similarly to a mouse ES cell. Since the cell was derived from the EB3DR-EpiSC, DsRed was expressed therein (see FIG. 4, (H)).
(§1) The naive-like colony formation and the chimera formation were checked in the same manner as described above except that XAV939 (manufactured by Sigma-Aldrich, S. Louis, Mo., USA) was used as the Wnt/β catenin signal inhibitor instead of IWP-2.

EB3DR-EpiSC [2] = test: Naive pluripotent stem cell-like colony formation of EpiSC; type: cell-based, mouse
Procedure: The EB3DR-EpiSC was cultured in N2B27 medium (Ying et al., Nature (2008), 435, 519-523) supplemented with 1,000 U/mL of mouse LIF and 1 μM of PD0325901 (manufactured by Axon, Groeningen, The Netherlands). To the resultant, 5 nM of IWP-2 (manufactured by Wako Pure Chemical Industries, Ltd., Osaka, Japan) was added, or CHIR known as an inhibitor of GSK3β or the same amount of DMSO was added instead of IWP-2, so as to check the influence on the EB3DR-EpiSC.
as §1

Wnt/β catenin signal = test: Western blotting of β catenin in cytoplasmic and nuclear fractions; type: cell-based, mouse; conditions: EB3DR-EpiSC; for inhibition of Wnt/β catenin signal: Western blotting (FIG. 4 (A))
Procedure: First, in order to confirm the effect of IWP-2 on a Wnt/β catenin signal inhibition, the amount of protein in β catenin was checked by Western blotting. The EB3DR-EpiSC was cultured under the aforementioned culturing conditions, IWP-2 (at a final concentration of 5 nM) was added thereto, and the resultant was cultured for another 2 days. As a control, the same amount of DMSO was added instead of IWP-2. Next, Nuclear/Cytosol Fractionation Kit (Bio Vision, manufactured by Mountain View, Calif.) was used in accordance with the manufacturer's manual to separate a cytoplasmic fraction and a nuclear fraction. Each of these fractions thus obtained was dissolved in Laemmli Sample Buffer (Bio-Rad, manufactured by Hercules, Calif.) to perform SDS-PAGE. A protein separated by the SDS-PAGE was blotted on a PVDF transfer membrane (manufactured by Millipore Corporation) to perform a primary antibody reaction.
As a primary antibody, an anti-β catenin antibody (#9562, 1:1000), an anti-(β-actin antibody (#3770, 1:1000), or an anti-histone H3 antibody (#4499, 1:2000) purchased from Cell Signaling Technology Inc. was used. As a secondary antibody, for the anti-β catenin antibody or the anti-histone H3 antibody, an anti-rabbit IgG Horseradish peroxidase-conjugated antibody (NA934V, 1:100, manufactured by GE Healthcare UK, Little Chalfont, UK) was used for the reaction, and for the anti-β-actin antibody, an anti-mouse IgG Horseradish peroxidase-conjugated antibody (NA931V, 1:1000, manufactured by GE Healthcare UK, Little Chalfont, UK) was used for the reaction, and then a band bonded to the secondary antibody was detected by SuperSignal West Pico Chemiluminescent Substrate (manufactured by Thermo Fisher Scientific Inc., Rockford, Ill.). As a result, it was confirmed that the amount of β catenin was reduced in the nuclear fraction by IWP-2 and that a Wnt/β catenin signal was thus inhibited (see FIG. 4, (A)).

EB3DR-EpiSC [3] = test: Chimera forming ability after injection into mouse blastocyst; type: in vivo; conditions: EpiSC treated with LIF and the inhibitor, about 10 cells injected per embryo
Procedure: Furthermore, the chimera forming ability of the EB3DR-EpiSC treated with LIF and IWP-2 was checked. Specifically, the embryo of a BDF1 (C57BL6/N; DBA1 F1) mouse was cultured in Medium 2 (manufactured by Millipore Corporation) to the eight-cell stage or morula stage. The resultant embryo was transferred to KSOM medium (manufactured by Millipore Corporation) and cultured for 24 hours to be developed to the blastocyst stage. For the injection into an embryo, the cell was dissociated into a single cell by a trypsin treatment, and the resultant was suspended in a medium. A zona pellucida was perforated under a microscope by using a piezoelectric micromanipulator, and a chimeric embryo was produced by injecting approximately 10 cells into a space below the zona pellucida in each embryo. After the injection, the embryo was cultured in KSOM medium until a blastomere was obtained, and then, the resultant was transplanted into the uterus of a pseudopregnant ICR recipient female mouse. The chimera formation was checked on the basis of the color of a fur. A cell derived from BDF1×C57BL/6 grows a black fur, and a cell derived from 129/Ola grows a brown (agouti-colored) fur. […]

STAT3 signal = test: Western blotting of phosphorylated STAT3; type: cell-based, mouse; conditions: EB3DR-EpiSC, 2nd day after stimulation
From the text: Besides, the EB3DR-EpiSC was stimulated with LIF, the resultant cell was collected on the 2nd day after stimulation, and the activation of a STAT3 signal was checked by the Western blotting. The activation of a STAT3 signal was checked on the basis of the presence of phosphorylated STAT3. The phosphorylated STAT3 was detected by using, as a primary antibody, an anti-P-STAT3 antibody (#9145, 1:2000, manufactured by Cell Signaling Technology Inc.) […] specifically recognizing phosphorylated STAT3.

EB3DR-EpiSC-TRE-Cdh1 = test: CD31 expression by FACS in E-cadherin induced EpiSC; type: cell-based, mouse; conditions: 7 days, with forced expression of E-cadherin (Dox(+), 10 μg/mL doxycycline)
Procedure: The EB3DR-EpiSC-TRE-Cdh1 was cultured for 7 days in the presence of a basic fibroblast growth factor (bFGF) or LIF in a usual medium (Dox(−)) or a medium supplemented with 10 μg/mL of doxycycline (Dox(+)), and the resultant cell was dissociated with a trypsin/EDTA solution and stained with an APC labeled anti-mouse CD31 antibody to be analyzed by using the FACS.

| Compound | expression of CD31 (CD31 positive cell frequency) (EB3DR-EpiSC [1]) | appearance of a colony corresponding to a naive pluripotent stem cell-like morphology, time after culture (EB3DR-EpiSC [2]; N2B27 medium with 1,000 U/mL mouse LIF and 1 μM PD0325901, 5 nM IWP-2) | appearance frequency of a colony characteristic to the naive pluripotent stem cell on the 14th day after culture (EB3DR-EpiSC [2]; N2B27 medium with LIF and PD0325901, 5 nM IWP-2, vs CHIR or DMSO) | inhibition of Wnt/β catenin signal (Wnt/β catenin signal) | amount of β catenin in the nuclear fraction (Wnt/β catenin signal; final concentration 5 nM, 2 days, vs DMSO) | chimera formation (production of a chimeric animal) (EB3DR-EpiSC [3]) | activation of a STAT3 signal (presence of phosphorylated STAT3) (STAT3 signal) | proportion of the CD31 (PECAM-1) positive cell on the 7th day after treatment (EB3DR-EpiSC [1]; LIF used in combination) | naive-like colony formation on the 7th day after treatment (EB3DR-EpiSC [2]; LIF used in combination) | CD31 (Pecam1) positive cell proportion (EB3DR-EpiSC-TRE-Cdh1) |
| --- | --- | --- | --- | --- | --- | --- | --- | --- | --- | --- |
| Cc1ccc2nc(NC(=O)CSc3nc4c(c(=O)n3-c3ccccc3)SCC4)sc2c1 [IWP-2, N-(6-methyl-2-benzothiazolyl)-2-[(3,4,6,7-tetrahydro-4-oxo-3-phenylthieno[3,2-d]pyrimidine-2-yl)thio]-acetamide] | expressed at a high frequency in a short period of time | ≤ 7 days | significantly increased | inhibited | reduced | confirmed, based on the fur color, as a chimeric mouse | also observed | – | – | – |
| O=c1[nH]c(-c2ccc(C(F)(F)F)cc2)nc2c1CSCC2 [XAV939, 3,5,7,8-tetrahydro-2-[4-(trifluoromethyl)phenyl]-4H-thiopyrano[4,3-d]pyrimidine-4-one] | observed at a high frequency | – | – | work as an inhibitor of a Wnt/β catenin signal | – | a chimeric animal was produced | also observed | remarkably increased | formed a naive-like colony | – |
| bFGF: basic fibroblast growth factor, culture medium supplement | – | – | – | – | – | – | – | – | – | the level was merely restrictive |
